Data published in patent US6156754A, “Glycoconjugates of modified camptothecin derivatives (A-or B-ring linkage)” (Bayer Aktiengesellschaft, priority 1996, dated 2000).
In brackets after ≈: the same amount, converted by molar mass. Where a name gives a salt, the structure may show the parent alone.

Columns and labels:
[1] = test system: HT 29; assay: Growth inhibition (MTT) test, cytotoxic action on HT 29; assay type: cell-based, human; conditions: HT 29 cell line, growth checked after day 3 and day 6
Experimental: (§1) 1. Growth Inhibition Test for the Determination of the Cytotoxic Properties
(§2) The human large intestine cell lines SW 480 and HT 29 (ATCC No. CCL 228 and HBT 38) and the mouse melanoma cell line B 16 F 10 were grown in Roux dishes in RPMI 1640 medium with addition of 10% FCS. They were then trypsinized and taken up in RPMI plus 10% FCS to a cell count of 50,000 cells/ml. 100 μl of cell suspension/well were added to a 96 microwell plate and incubated for 1 day at 37° C. in a CO2 incubator. A further 100 μl of RPMI Medium and 1 μl of DMSO containing the test substances were then added. The growth was checked after day 3 and day 6. To this end, 40 μl of MTT solution (3-(4,5-dimethylthiazol-2-yl)-2,5-diphenyl-tetrazolium bromide) having a starting concentration of 5 mg/ml of H2 O were added to each microwell. Incubation was carried out for 5 hours in a CO2 incubator at 37° C. The medium was then aspirated and 100 μl of i-propanol/well were added. After shaking for 30 min with 100 μl of H2 O, the extinction was measured at 540 nm using a Titertek Multiscan MCC/340 (Flow).
(§3) The cytotoxic action is indicated in Table 1 as the IC50 value (dose which inhibits the cell growth to 50% of the cell growth of the control) in each case for the SW 480 and HT 29 and B16F10 cell lines: […]

[2] = test system: SW 480; assay: Growth inhibition (MTT) test, cytotoxic action on SW 480; assay type: cell-based, human; conditions: SW 480 cell line, growth checked after day 3 and day 6
Experimental: as §1, §2, §3

[3] = test system: B16F10; assay: Growth inhibition (MTT) test, cytotoxic action on B16F10; assay type: cell-based, mouse; conditions: B16F10 cell line, growth checked after day 3 and day 6
Experimental: as §1, §2, §3

[4] = In vivo inhibition of tumour growth in the nude mouse model (LXFL 529 xenograft); design: species or system human tumour in athymic nude mice (NMRI nu/nu); conditions: mouse, in vivo, ip; nude mice, i.p. day 1, 2, 3; read-out: maximum tolerable dose (MTD)
Experimental: (§4) 3. In Vivo Inhibition of Tumour Growth in the Nude Mouse Model
(§5) For all in vivo experiments for investigation of the inhibition of tumour growth athymic nude mice (NMRI nu/nu strain) were used. The selected large-cell lung carcinoma LXFL 529 was grown by serial passage in nude mice. The human origin of the tumour was confirmed by isoenzymatic and immunohistochemical methods.
(§6) The tumour was implanted subcutaneously into both flanks of 6 to 8 week old nu/nu nude mice. The treatment was started, depending on the doubling time, as soon as the tumours had reached a diameter of 5-7 mm. The mice were assigned to the treatment group and the control group (5 mice per group with 8-10 assessable tumours) by randomization. The individual tumours of the control group all grew progessively.
(§7) The size of the tumours was measured in two dimensions by means of a slide gauge. The tumour volume, which correlated well with the cell count, was then used for all evaluations. The volume was calculated according to the formula "length×breadth×breadth/2" ([a×b^2 ]/2, a and b represent two diameters at right angles).
(§8) The values of the relative tumour volume (RTV) were calculated for each individual tumour by dividing the tumour size on day X with the tumour size on day 0 (at the time of randomization). The mean values of the RTV were then used for the further evaluation.
(§9) The inhibition of the increase of the tumour volume (tumour volume of the test group/control group, T/C, in per cent) was the final measured value.
(§10) The administration of the compounds was carried out intraperitoneally (i.p.) on day 1, 2 and 3 after randomization.

[5] = test system: large-cell lung carcinoma LXFL 529; assay: as above; design: species or system human tumour in athymic nude mice (NMRI nu/nu); conditions: for Relative body weight on day 7 / Relative tumour volume on day 14 / Survival time: i.p. day 1, 2, 3; for Relative body weight on day 7: control 102; for Relative tumour volume on day 14: control 691; for Survival time: each of five mice
Experimental: as §4, §5, §6, §7, §8, §9, §10

[6] = test system: Bone marrow cells; assay: Haematopoietic activity: bone marrow stem cell colony formation; assay type: cell-based, mice
Experimental: 2. Haematopoietic Activity of Glycoconjugates in Comparison with the Underlying Active Compound
Bone marrow cells are washed out of mice femurs. 10^5 cells are incubated at 37° C. and 7% CO2 in McCoy 5A medium (0.3% agar) together with recombinant murine GM-CSF (Genzyme; stem cell colony formation) and the substances (10^-4 to 100 μg/ml). 7 days later, the colonies ([…]) and clusters (17-50 cells) are counted.
As shown in Tab. 2 with reference to Example 2.1, the glycoconjugates investigated show, compared with the underlying active compound, an inhibition of the bone marrow stem cell proliferation which is reduced approximately by the factor 100.

SMILES	IC50 [1] [nM]	IC50 [2] [nM]	IC50 [3] [nM]	other results
CCC1(O)C(=O)OCc2c1cc1n(c2=O)Cc2c-1nc1cc3c(cc1c2CN1CCN(C(=O)[C@H](C)NC(=O)[C@H](CCCCNC(=S)Nc2ccc(O[C@H]4O[C@@H](C)[C@@H](O)[C@@H](OC)[C@@H]4O)cc2)NC(=S)Nc2ccc(O[C@H]4O[C@@H](C)[C@@H](O)[C@@H](OC)[C@@H]4O)cc2)CC1)OCCO3 (mixture of isomers) [Example 3.1]	0.06	0.08	0.5	
CCC1(O)C(=O)OCc2c1cc1n(c2=O)Cc2c-1nc1cc3c(cc1c2CN1CCN(C(=O)[C@H](C)NC(=O)[C@H](CCCCN)NC(=S)Nc2ccc(O[C@H]4O[C@@H](C)[C@@H](O)[C@@H](OCC(=O)O)[C@@H]4O)cc2)CC1)OCCO3 (mixture of isomers) [Example 3.3, 10,11-(Ethylenedioxy)-7-{1-[N^α -(O-(3-O-carboxymethyl-β-L-fucopyranosyl)-4-hydroxy-phenylaminothiocarbonyl]-L-lysyl-L-alanyl]-piperazin-4-yl-methyl}-20(R/S)-camptothecin, hydrochloride]	0.1	0.25		
CC[C@@]1(O)C(=O)OCc2c1cc1n(c2=O)Cc2c-1nc1ccccc1c2COC(=O)[C@H](C)NC(=O)[C@H](CCCCNC(=S)Nc1ccc(O[C@H]2O[C@@H](C)[C@@H](O)[C@@H](OC)[C@@H]2O)cc1)NC(=S)Nc1ccc(O[C@H]2O[C@@H](C)[C@@H](O)[C@@H](OC)[C@@H]2O)cc1 [Example 1.1, 7-{N^α,N^ε -bis-[O-(3-O-Methyl-β-L-fucopyranosyl)-4-hydroxy-phenylaminothiocarbonyl]-L-lysyl-L-alanyloxymethyl}-camptothecin]	0.025	0.015	0.18	MTD [4]: 12.5 mg/kg/day; Relative body weight on day 7 ([5]; 3.125 mg/kg/day): 93 % of day 0; Relative tumour volume on day 14 ([5]; 3.125 mg/kg/day): 0.1 % of day 0; Survival time ([5]; 3.125 mg/kg/day): > 21 days; Relative body weight on day 7 ([5]; 6.25 mg/kg/day): 93 % of day 0; Relative tumour volume on day 14 ([5]; 6.25 mg/kg/day): 0.1 % of day 0; Survival time ([5]; 6.25 mg/kg/day): > 21 days; Relative body weight on day 7 ([5]; 12.5 mg/kg/day (MTD)): 72 % of day 0; Relative tumour volume on day 14 ([5]; 12.5 mg/kg/day (MTD)): 0.1 % of day 0; Survival time ([5]; 12.5 mg/kg/day (MTD)): > 21 days; therapeutic efficacy (remission of the tumour) ([5]; at MTD, 1/2 MTD and 1/4 MTD): complete remission of the tumour
CC[C@@]1(O)C(=O)OCc2c1cc1n(c2=O)Cc2c-1nc1ccccc1c2COC(=O)[C@@H](NC(=O)[C@H](CCCCN)NC(=S)Nc1ccc(O[C@H]2O[C@@H](C)[C@@H](O)[C@@H](OCC(=O)O)[C@@H]2O)cc1)C(C)C [Example 1.3, 7-{N^α -[O-(3-O-Carboxymethyl-β-L-fucopyranosyl)-4-hydroxy-phenylamino-thiocarbonyl]-L-lysyl-L-valyloxymethyl}-camptothecin, hydrochloride]	0.03	0.04		
CC[C@@]1(O)C(=O)OCc2c1cc1n(c2=O)Cc2c-1nc1ccccc1c2COC(=O)[C@@H](NC(=O)[C@H](CCCCN)NC(=S)Nc1ccc(O[C@H]2O[C@@H](C)[C@@H](O)[C@@H](OC)[C@@H]2O)cc1)C(C)C [Example 1.4, 7-{N^α -[O-(3-O-Methyl-β-L-fucopyranosyl)-4-hydroxy-phenylamino-thiocarbonyl)-L-lysyl-L-valyoxymethyl}-camptothecin, Hydrochloride]	0.04	0.03	0.2	
CC[C@@]1(O)C(=O)OCc2c1cc1n(c2=O)Cc2cc3c(NC(=O)[C@H](C)NC(=O)[C@H](CCCCNC(=S)Nc4ccc(O[C@H]5O[C@@H](C)[C@@H](O)[C@@H](OC)[C@@H]5O)cc4)NC(=S)Nc4ccc(O[C@H]5O[C@@H](C)[C@@H](O)[C@@H](OC)[C@@H]5O)cc4)cccc3nc2-1 [Example 2.1, 9-{N^α,N^ε -bis-[O-(3-O-Methyl-β-L-fucopyranosyl)-4-hydroxy-phenylamino-thiocarbonyl]-L-lysyl-L-alanyl-amino}-camptothecin]	0.06	0.2	2	reduction of inhibition of bone marrow stem cell proliferation compared with the underlying active compound (factor) ([6]; glycoconjugate vs underlying active compound (2.1.a)): ~100; IC50 (inhibition of bone marrow stem cell proliferation) ([6]; mouse bone marrow cells with GM-CSF, 7 days): 170 ng/mL
CC[C@@]1(O)C(=O)OCc2c1cc1n(c2=O)Cc2cc3c(N)cccc3nc2-1 [Example 2.1.a, 9-Amino-camptothecin, reference compound]				IC50 ([6]; Bone marrow cell, 168 h, mouse bone marrow cells with GM-CSF, 7 days, read-out: IC50 (inhibition of bone marrow stem cell proliferation)): 1.6 ng/mL (≈ 4.4 nM)
